Series [1] concerns Phosphodiesterase 4 enzyme purified from U937 human monocytic cells. Description: Inhibition of PDE4 (phosphodiesterase reaction with [3H]-cAMP). It counts as biochemical. To be noted: 1 μM cAMP plus 10 nM [3H]-cAMP, 45 min at 30° C., pH 7.5. The protocol: Phosphodiesterase 4 enzyme was purified from U937 human monocytic cells by gel filtration chromatography, and phosphodiesterase reactions were carried out as previously described. See, e.g., Muller et al., Bioorg. Med. Chem. Lett., 1998, 8(19): 2669-2674. Briefly, reactions were carried out in 96-well deep-well plates in 50 mM Tris HCl pH 7.5, 5 mM MgCl2, 1 μM cyclic adenosine monophosphate (cAMP), plus 10 nM [^3H]-cAMP for 45 min at 30° C. The reactions were terminated by boiling, treated with 1 mg/ml snake venom, and separated using AG-1X8 ion exchange resin (BioRad). Reactions consumed less than 15% of available substrate.

The test system of series [2] is sarcoidosis patients with chronic cutaneous lesions despite systemic therapy. Nature of the series: Open label clinical study, Sarcoidosis Activity and Severity Index (SASI). It counts as in vivo, human. To be noted: for SASI induration score, median (range): 43 areas with induration, baseline median 2 (0-4), p<0.005, scale 0 to 4. The protocol: An open label study of sarcoidosis patients with chronic cutaneous lesions despite systemic therapy was performed to determine the safety and efficacy of (+)-2-[1-(3-ethoxy-4-methoxyphenyl)-2-methanesulfonylethyl]-4-acetylaminoisoindolin-1,3-dione therapy. Patients were on a stable treatment regimen (corticosteroids, methotrexate (max 10 mg/week), azathioprine, hydroxychloroquine, cyclophosphamide, minocycline, doxycycline, chloroquine) for at least three months prior to study entry. Patients were assessed by a previously validated scoring system for cutaneous sarcoidosis: Sarcoidosis Activity and Severity Index (SASI). Individual scores were made for erythema, induration, and desquamation on a scale of 0 to 4. For an individual area of the body, the percentage of involvement for sarcoidosis lesions was scored on a scale from 0 to 7. After establishing a baseline SASI score, patients began treatment with (+)-2-[1-(3-ethoxy-4-methoxyphenyl)-2-methanesulfonylethyl]-4-acetylaminoisoindolin-1,3-dione 20 mg twice a day over the next 12 weeks. A SASI score was determined by the same investigator at baseline and weeks 4 and 12 of treatment.
Thirteen patients completed 16 weeks of study, including 12 weeks of active drug therapy. […] Among the 13 patients, there were 59 areas with one or more positive SASI feature during treatment. Among the 43 areas with induration, there was a significant drop in the SASI score from baseline (median 2 (0-4)) after 4 weeks (median 1 (0-3), p<0.005) and 12 weeks (median 1 (0-3), p<0.005) therapy.

For orientation: IC50 means the concentration needed to halve the response being measured.

Regarding `CCOc1cc([C@@H](CS(C)(=O)=O)N2C(=O)c3cccc(NC(C)=O)c3C2=O)ccc1OC` [(+)-2-[1-(3-ethoxy-4-methoxyphenyl)-2-methanesulfonylethyl]-4-acetylaminoisoindolin-1,3-dione], the 50% inhibitory concentration (IC50) in series [1] was 73.5 nM. Further, in series [2] (20 mg twice a day, 12 weeks), the “change in SASI area of involvement during therapy” value is “no significant change”, the “change in SASI desquamation during therapy” value is “no significant change” and the “change in SASI erythema during therapy” value is listed as “no significant change”. For the same compound, the tolerability result in series [2] (20 mg twice a day, 12 weeks, 13 patients) was “well tolerated”. Also, the “discontinuation of drug treatment” value in series [2] (13 patients, 12 weeks of active drug therapy) was “No patient discontinued”. In series [2] (after 4 weeks therapy, 20 mg twice a day), the “SASI induration score, median (range)” value is recorded as 1 (0-3). Also, in series [2] (after 12 weeks therapy, 20 mg twice a day), the “SASI induration score, median (range)” value was 1 (0-3). Besides, the “patients with dose reduced by 50% (one for nausea, the other for feeling jittery)” value in series [2] (of 13 patients, continued on the reduced dose) was “two”. Further, the “improvement in skin induration” value in series [2] (within 4 weeks of institution of therapy) was “significant improvement”.

(Values after patent US20140004182A1, “METHODS FOR THE TREATMENT OF SARCOIDOSIS” (priority 2009, published 2014).)
